For 16 compounds, EC50 results are on record in US11261186B2, “Biaryl derivative as GPR120 agonist” (LG CHEM, LTD., priority 2014, dated 2022).

This assay concerns the target T1, hGPR120 (Homo sapiens, UniProt Q5NUL3).
T1 construct: expressed in transfected cells; host or cells: CHO-K1
T1 sequence (Q5NUL3 1-361): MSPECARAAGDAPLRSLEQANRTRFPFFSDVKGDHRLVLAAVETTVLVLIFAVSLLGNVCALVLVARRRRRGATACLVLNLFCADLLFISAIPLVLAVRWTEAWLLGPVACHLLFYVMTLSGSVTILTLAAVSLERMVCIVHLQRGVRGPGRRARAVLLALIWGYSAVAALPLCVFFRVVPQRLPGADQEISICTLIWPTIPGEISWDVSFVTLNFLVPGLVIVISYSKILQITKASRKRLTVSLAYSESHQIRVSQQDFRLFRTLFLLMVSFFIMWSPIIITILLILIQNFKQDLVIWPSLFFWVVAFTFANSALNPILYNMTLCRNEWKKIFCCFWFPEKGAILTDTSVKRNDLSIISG
Briefly: Measurement of Activity of GPR120 Agonist (Cell-Based Assay), Calcium 5 dye fluorescence. The note with it: CHO-K1 cells expressing Ga16 and hGPR120. In a few lines:
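Agonist-evoked calcium signal, expressed as percent relative to DMSO-only wells, read at 485/525 nm after serial-dilution addition (0.5% DMSO final). Cells were hGPR120/Gα16 CHO-K1, seeded 18 h earlier and dye-loaded for 1 h at 37°C.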

With `CCCCOc1cccc(-c2cc(F)c(N3CCC(CC(=O)O)CC3)c(F)c2)n1` [Example 324, 2-[1-[4-(6-butoxy-2-pyridyl)-2,6-difluoro-phenyl]-4-piperidyl]acetic acid], the EC50 (commonly the concentration needed to bring the measured effect to its halfway point) was 200 to 2000 nM.

`COc1ccc(-c2cc(F)c(OCCCC(=O)O)c(F)c2)cc1OCC1CC1` [Example 526, 4-(3′-cyclopropylmethoxy-3,5-difluoro-4′-methoxy-biphenyl-4-yloxy)-butyric acid]: the half-maximal effective concentration (EC50) is under 200 nM.

Turning to `O=C(O)CCCC1(c2c(F)cc(-c3cccnc3SC3CCC3)cc2F)CC1` [Example 167, 4-{1-[4-(2-cyclobutylsulfanyl-pyridin-3-yl)-2,6-difluoro-phenyl]-cyclopropyl}-butyric acid], the EC50 was in the range of 200 to 2000 nM.

As to `CCCSc1ncccc1-c1cc(F)c(C(C)CCCC(=O)O)c(F)c1` (stereo not shown) [Example 43, 5-[2,6-difluoro-4-(2-propylsulfanyl-3-pyridyl)-phenyl]hexanoic acid], the EC50 is under 200 nM.

Turning to `O=C(O)CC1CCN(c2c(F)cc(-c3nccc(Oc4ccc(F)cc4)n3)cc2F)CC1` [Example 511, 2-[1-[4-[4-(4-fluorophenoxy)pyrimidin-2-yl]-2,6-difluoro-phenyl]-4-piperidyl]acetic acid], the 50% effective concentration (EC50) was under 200 nM.

As for `O=C(O)CCC1CCc2cc(-c3cccc(OCC4CC4)c3)ccc2O1` (stereo not shown) [Example 447, 3-[6-[3-(cyclopropylmethoxy)phenyl]chroman-2-yl]propanoic acid], the EC50 was under 200 nM.

`O=C(O)CCCCNc1c(F)cc(-c2cccnc2OCC2CC2)cc1F` [Example 99, 5-[4-[2-(cyclopropylmethoxy)-3-pyridyl]-2,6-difluoro-anilino]pentanoic acid]: the concentration for a half-maximal effect (EC50) is under 200 nM.

For the compound `O=C(O)CC1CCN(c2c(F)cc(-c3csc(OCC4CC4)n3)cc2F)C1` (stereo not shown) [Example 583, {1-[4-(2-cyclopropylmethoxy-thiazol-4-yl)-2,6-difluoro-phenyl]-pyrrolidin-3-yl}-acetic acid], the EC50 fell in the range of 200 to 2000 nM.

Take `O=C(O)CC1CCN(c2c(F)cc(-c3ncc(F)c(OC4CCC4)n3)cc2F)C1` (stereo not shown) [Example 592, {1-[4-(4-cyclobutoxy-5-fluoro-pyrimidin-2-yl)-2,6-difluoro-phenyl]-pyrrolidin-3-yl}-acetic acid]: the EC50 fell in the range of 200 to 2000 nM.

As for `CCCOc1cncc(-c2cc(F)c(N3CCC(CC(=O)O)C3)c(F)c2)n1` (stereo not shown) [Example 495, 2-{1-[2,6-difluoro-4-(6-propoxy-pyrazin-2-yl)phenyl]pyrrolidin-3-yl}acetic acid], the EC50 was under 200 nM.

With `O=C(O)CCCC(F)(F)c1ccc(-c2cccnc2OC2CCCC2)cc1` [Example 177, 5-[4-(2-cyclopentyloxy-pyridin-3-yl)-phenyl]-5,5-difluoro-pentanoic acid], the 50% effective concentration (EC50) is under 200 nM.

With `O=C(O)CC1CCN(c2c(F)cc(-c3cccc(OCC4CCC4)n3)cc2F)C1` (stereo not shown) [Example 564, {1-[4-(6-cyclobutylmethoxy-pyridin-2-yl)-2,6-difluoro-phenyl]-pyrrolidin-3-yl}-acetic acid], the EC50 was 200 to 2000 nM.

In the case of `O=C(O)CCCOc1c(F)cc(-c2ccc(Cl)c(OCC3CC3)c2)cc1F` [Example 534, 4-(4′-chloro-3′-cyclopropylmethoxy-3,5-difluoro-biphenyl-4-yloxy)-butyric acid], the EC50 lay within 200 to 2000 nM.

In the case of `CN(CCCC(=O)O)c1c(F)cc(-n2ncc3ccc(OC4CCC4)cc32)cc1F` [Example 492, 4-[4-[6-(cyclobutoxy)indazol-1-yl]-2,6-difluoro-N-methyl-anilino]butanoic acid], the EC50 is under 200 nM.

Regarding `CCCCOc1cncc(-c2cc(F)c(N3CCC(CC(=O)O)C3)c(F)c2)n1` (stereo not shown) [Example 498, 2-{1-[2,6-difluoro-4-(6-butoxy-pyrazin-2-yl)phenyl]pyrrolidin-3-yl}acetic acid], the EC50 was under 200 nM.

On to `CC(CCCC(=O)O)c1c(F)cc(-c2cccnc2OC2CCOC2)cc1F` (stereo not shown) [Example 230, 5-{2,6-difluoro-4-[2-(tetrahydro-furan-3-yloxy)-pyridin-3-yl]-phenyl}-hexanoic acid], for which the EC50 was under 200 nM.
